Laboratory results taken from paper PMC5384001 (Scientific Reports, 2017).

What was measured:
GluN1 LBD = target: GluN1 LBD; set-up: method as in PMID 12805203; conditions: cited from earlier work
GluD2-(H)GluN1 = target: T1, GluD2-(H)GluN1 (Rattus norvegicus, UniProt Q63226, A766F/D542Y/D767R/N763E/R768S/S544G/T764L/V761T/V765F/Y543Q); test: Two-electrode voltage clamp in Xenopus oocytes, current response; assay type: cell-based
T1 construct: have an effect on the function of full-length receptors as well; expressed in transfected cells; host or cells: Xenopus laevis oocytes injected with cRNA
T1 sequence (Q63226 24-1007 D542Y/Y543Q/S544G/V761T/N763E/T764L/V765F/A766F/D767R/R768S): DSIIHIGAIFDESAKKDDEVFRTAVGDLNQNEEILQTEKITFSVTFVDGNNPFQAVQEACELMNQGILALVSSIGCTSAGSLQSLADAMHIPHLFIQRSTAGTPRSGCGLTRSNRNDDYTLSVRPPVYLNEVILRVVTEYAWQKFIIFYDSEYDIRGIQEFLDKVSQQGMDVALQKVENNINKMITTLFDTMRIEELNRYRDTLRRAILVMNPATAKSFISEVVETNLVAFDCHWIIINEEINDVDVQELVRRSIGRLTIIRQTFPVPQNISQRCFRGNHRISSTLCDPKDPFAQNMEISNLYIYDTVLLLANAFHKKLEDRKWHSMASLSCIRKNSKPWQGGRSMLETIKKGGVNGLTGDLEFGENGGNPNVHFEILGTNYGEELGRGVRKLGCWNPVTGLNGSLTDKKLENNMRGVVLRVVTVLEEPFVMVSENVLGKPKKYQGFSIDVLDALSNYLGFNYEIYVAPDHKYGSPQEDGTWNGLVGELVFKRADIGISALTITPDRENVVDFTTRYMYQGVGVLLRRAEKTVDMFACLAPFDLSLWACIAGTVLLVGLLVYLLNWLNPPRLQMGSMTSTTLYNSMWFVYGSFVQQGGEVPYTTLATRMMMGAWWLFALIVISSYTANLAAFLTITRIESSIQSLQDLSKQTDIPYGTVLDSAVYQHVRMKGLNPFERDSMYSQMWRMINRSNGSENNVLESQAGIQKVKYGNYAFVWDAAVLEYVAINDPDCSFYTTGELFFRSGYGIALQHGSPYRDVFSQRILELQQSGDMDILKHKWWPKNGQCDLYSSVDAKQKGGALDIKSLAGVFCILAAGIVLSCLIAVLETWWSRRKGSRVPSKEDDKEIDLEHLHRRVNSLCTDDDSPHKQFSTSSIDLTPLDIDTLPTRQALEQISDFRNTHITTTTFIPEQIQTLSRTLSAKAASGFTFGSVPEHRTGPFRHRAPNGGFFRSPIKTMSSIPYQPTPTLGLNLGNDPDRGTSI
Method: Oocytes were obtained by surgically removing parts of the ovaries from Xenopus laevis (Nasco, Fort Atkinson, WI, USA) anaesthetised with 1.5 g/L 3-aminobenzoic acid ethylester (Sigma, Taufkirchen, Germany). The ovary clippings were digested with 784 U/mL (4 mg/mL) collagenase type I (Worthington, Lakewood, NJ, USA) in Ca^2+-free Barth’s solution (88 mM NaCl, 1.1 mM KCl, 2.4 mM NaHCO3, 0.8 mM MgSO4, 15 mM HEPES-NaOH, pH 7.6) with gentle agitation for 1.5–2 h at 20 °C to remove the follicular cell layer. After stopping the collagenase digestion by washing with Barth’s solution (88 mM NaCl, 1.1 mM KCl, 2.4 mM NaHCO3, 0.3 mM Ca(NO3)2, 0.4 mM CaCl2, 0.8 mM MgSO4, 15 mM HEPES-NaOH, pH 7.6), defolliculated oocytes of stages V and VI were selected and maintained at 16 °C in Barth’s solution supplemented with 100 μg/mL gentamicin, 40 μg/mL streptomycin, and 63 μg/mL penicillin. Oocytes were injected with 11 ng cRNA (10 ng of each cRNA for co-expression of GluN1 and GluN2A) using a nanoliter injector (WPI, Sarasota, FL, USA). Four days after cRNA injection, current responses were recorded under voltage clamp at –70 mV with a Turbo Tec-10CD amplifier (npi electronic, Tamm, Germany) controlled by Patchmaster software (HEKA, Lambrecht, Germany). Currents were filtered with a 20 Hz low-pass filter and then digitised with a sampling rate of 50 Hz. Recording electrodes were pulled from borosilicate glass (Hilgenberg, Malsfeld, Germany) with an L/M-3P-A vertical pipette puller (List-Medical), filled with 3 M KCl, and had resistances of 0.5–5 MΩ (voltage electrode) or 0.5–1.5 MΩ (current electrode). Recordings were performed in a 50 μL chamber under constant superfusion with extracellular solution at a flow rate of 3–5 mL/min. […] Finally, Ba-NFR and then NMDGR were applied again to check for reversibility.

SMILES: N[C@H](CO)C(=O)O [D-serine]
- Kd (GluN1 LBD): 7 µM
- current response (GluD2-(H)GluN1; 10 μM D-serine, n = 14): 1.1 ± 0.6 nA
- current response (GluD2-(H)GluN1; 1 mM D-serine, n = 22): 2.3 ± 0.4 nA
